Experimental data reported in patent US7915316B2, “Sulfonamides” (Allergan, Inc, priority 2005, dated 2011).

Experiments:
EP2 [1] = target: T1, EP2 (Homo sapiens, UniProt P43116); experiment: functional activity at hEP2 (fhEP2); format: cell-based; conditions: Table 1
EP4 [2] = target: T2, EP4 (Homo sapiens, UniProt P35408); experiment: EP4 receptor binding (bhEP4 / EP4 Binding); conditions: for IC50: Table 1; for EC50 / EP4 Binding % Inh: Table 2; as to EP4 Binding % Inh: test concentration or dose not given here
T2 sequence (P35408 whole entry): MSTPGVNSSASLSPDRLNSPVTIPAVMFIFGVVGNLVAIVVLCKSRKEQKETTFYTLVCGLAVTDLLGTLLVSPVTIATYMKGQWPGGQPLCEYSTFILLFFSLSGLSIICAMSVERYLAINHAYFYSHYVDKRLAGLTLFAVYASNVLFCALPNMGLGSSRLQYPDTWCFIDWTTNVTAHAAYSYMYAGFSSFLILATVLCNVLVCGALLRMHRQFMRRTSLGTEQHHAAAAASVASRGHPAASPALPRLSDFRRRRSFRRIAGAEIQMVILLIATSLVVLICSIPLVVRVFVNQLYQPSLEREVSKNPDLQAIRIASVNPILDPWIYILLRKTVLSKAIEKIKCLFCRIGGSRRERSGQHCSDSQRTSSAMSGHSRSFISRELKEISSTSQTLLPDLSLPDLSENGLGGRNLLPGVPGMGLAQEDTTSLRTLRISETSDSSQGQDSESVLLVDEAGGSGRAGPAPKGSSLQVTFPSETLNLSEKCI

EP2 [3] = target: T1, EP2; experiment: cAMP assay; format: cell-based
EP2 [4] = target: T1, EP2; experiment: EP2 receptor binding (bhEP2 / EP2 Binding); conditions: for IC50: Table 1; for EC50 / EP2 Binding % Inh: Table 2; as to EP2 Binding % Inh: test concentration or dose not given here
IP = IP (Homo sapiens, UniProt P43119); experiment: activity at IP receptor; conditions: Table 2
Sequence of IP (P43119 whole entry): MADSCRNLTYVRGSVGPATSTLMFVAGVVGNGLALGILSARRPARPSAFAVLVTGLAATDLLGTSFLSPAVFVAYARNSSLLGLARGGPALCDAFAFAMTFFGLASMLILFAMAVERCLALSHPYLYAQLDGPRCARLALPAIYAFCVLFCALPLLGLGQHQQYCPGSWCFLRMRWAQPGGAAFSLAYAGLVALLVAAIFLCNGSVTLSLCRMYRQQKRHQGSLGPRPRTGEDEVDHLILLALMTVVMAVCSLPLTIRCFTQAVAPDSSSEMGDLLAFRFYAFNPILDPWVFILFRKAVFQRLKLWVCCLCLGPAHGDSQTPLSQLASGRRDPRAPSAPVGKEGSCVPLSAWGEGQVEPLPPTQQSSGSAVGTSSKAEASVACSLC

TP = target: T3, TP (Homo sapiens, UniProt P21731); experiment: activity at TP receptor; conditions: Table 2
T3 sequence (P21731 1-343): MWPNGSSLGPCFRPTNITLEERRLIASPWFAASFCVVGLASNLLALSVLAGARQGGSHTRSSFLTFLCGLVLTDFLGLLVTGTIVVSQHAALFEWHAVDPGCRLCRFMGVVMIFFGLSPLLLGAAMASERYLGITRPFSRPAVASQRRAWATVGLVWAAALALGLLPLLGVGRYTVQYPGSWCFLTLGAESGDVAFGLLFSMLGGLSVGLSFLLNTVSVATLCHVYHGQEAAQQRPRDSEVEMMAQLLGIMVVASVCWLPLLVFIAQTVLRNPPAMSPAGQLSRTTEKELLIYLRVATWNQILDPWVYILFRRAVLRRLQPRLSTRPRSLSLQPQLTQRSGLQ

EP2 [5] = target: T1, EP2; experiment: Ca2+ signal, EP2; format: cell-based; conditions: for Emax: relative to PGE2
EP4 [6] = target: T2, EP4; experiment: Ca2+ signal, EP4; format: cell-based; conditions: relative to PGE2
EP2 and EP4 receptors = experiment: in-vitro assay for binding to and activity at various prostaglandin receptors; conditions: as compared to the FP, EP1, TP, IP and DP receptors

T1 sequence (P43116 whole entry): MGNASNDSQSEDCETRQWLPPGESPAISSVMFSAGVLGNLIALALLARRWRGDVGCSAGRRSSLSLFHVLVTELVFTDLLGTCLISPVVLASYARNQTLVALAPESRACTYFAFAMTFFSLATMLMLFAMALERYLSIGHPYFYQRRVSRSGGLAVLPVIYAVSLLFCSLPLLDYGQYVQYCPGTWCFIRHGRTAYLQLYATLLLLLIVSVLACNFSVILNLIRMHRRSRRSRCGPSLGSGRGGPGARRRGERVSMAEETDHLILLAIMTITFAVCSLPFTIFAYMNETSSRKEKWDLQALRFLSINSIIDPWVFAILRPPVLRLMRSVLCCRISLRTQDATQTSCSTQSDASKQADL

Structure (SMILES)	EC50 (EP2 [1])	IC50 (EP4 [2])	EC50 (EP2 [3]; Table 1, read-out: cAMP)	IC50 (EP2 [4])	EC50 (EP4 [2])	EP4 Binding % Inh (EP4 [2])	IP (IP)	TP (TP)	EC50 (EP2 [5])	Emax (EP2 [5])	Emax (EP4 [6])	EC50 (EP2 [3]; Table 2, read-out: cAMP EC50)	EC50 (EP2 [4])	EP2 Binding % Inh (EP2 [4])	selectivity at EP2 and EP4 receptors (EP2 and EP4 receptors)
CS(=O)(=O)N(C/C=C\CCCC(=O)O)CCOc1cc(Cl)cc(Cl)c1					2920 nM	64%	403	7008	2960 nM	83%	10%	214 nM	1900 nM	81%	
CS(=O)(=O)N(CC#CCCCC(=O)O)CCOc1cc(Cl)cc(Cl)c1					4170 nM	55%	IP = 868		1250 nM	90%	5%	84 nM	1130 nM	87%	
CCCCCC(O)c1ccc(CN(Cc2ccc(OCC(=O)O)cc2)S(=O)(=O)c2cccnc2)cc1 (centres unmarked)					1320 nM	89%			11 nM	92%	2%	3.5 nM	208 nM	97%	
CC(C)(C)c1ccc(CN(Cc2ccc(OCC(=O)O)cc2)S(=O)(=O)c2cccnc2)cc1 [4-[[4-(1-t-butyl)benzyl]pyridinesulfonylaminomethyl]phenoxyacetic acid]					1340 nM	59%			20 nM	87%	0%	18 nM	100 nM	93%	
CC(C)(C)c1ccc(CN(CCCCCCC(=O)O)S(=O)(=O)c2ccccc2)cc1 [7-[[4-(1-t-butyl)benzyl]benzenesulfonylamino]heptanoic acid]					373 nM	99%			964 nM	78%	11%	965 nM	1540 nM	82%	
CC(C)(C)c1ccc(CN(CCCCCCC(=O)O)S(=O)(=O)c2cccnc2)cc1 [7-[[4-(1-t-butyl)benzyl]pyridinesulfonylamino]heptanoic acid]					1380 nM	71%			591 nM	83%	1%	126 nM	829 nM	73%	
CC(C)(C)c1ccc(CN(CCCCCCC(=O)O)S(=O)(=O)c2cccs2)cc1 [7-[[4-(1-t-butyl)benzyl]thiophenelsulfonylamino]heptanoic acid]					706 nM	94%			1130 nM	71%	9%	1970 nM	493 nM	76%	

Second part, the compound after the results:

EC50 (EP2 [1])	IC50 (EP4 [2])	EC50 (EP2 [3]; Table 1, read-out: cAMP)	IC50 (EP2 [4])	EC50 (EP4 [2])	EP4 Binding % Inh (EP4 [2])	IP (IP)	TP (TP)	EC50 (EP2 [5])	Emax (EP2 [5])	Emax (EP4 [6])	EC50 (EP2 [3]; Table 2, read-out: cAMP EC50)	EC50 (EP2 [4])	EP2 Binding % Inh (EP2 [4])	selectivity at EP2 and EP4 receptors (EP2 and EP4 receptors)	Structure (SMILES)
275 nM	546 nM	138 nM	4730 nM												CCCCCC(O)c1ccc(CN(CCCCCCC(=O)O)S(=O)(=O)c2cccnc2)cc1 (centres unmarked)
634 nM	150 nM														CCCCCC(O)c1ccc(CN(CCCCCCC(=O)O)S(=O)(=O)c2ccccc2)cc1 (centres unmarked) [7-[[4-(1-hydroxyhexyl)benzyl]benzenesulfonylamino]heptanoic acid]
								620 nM			24 nM	5680 nM			CCCCCC(O)c1ccc(CN(CC#CCCCC(=O)O)S(C)(=O)=O)cc1 (centres unmarked) [7-[[4-(1-hydroxyhexyl)benzyl]methanesulfonylamino]hept-5-yne-oic acid]
600 nM	90 nM	> 10000 nM	1490 nM												CCCCCC(O)c1ccc(CN(CCCCCCC(=O)O)S(=O)(=O)c2cccs2)cc1 (centres unmarked) [7-[[4-(1-hydroxyhexyl)benzyl]thiophenesulfonylamino]heptanoic acid]
					41%	IP = 2561		2310 nM	89%	2%	156 nM		60%		CC(C)(C)c1ccc(CN(CCCCCCC(=O)O)S(C)(=O)=O)cc1 [7-[[4-(1-t-butyl)benzyl]methanesulfonylamino]heptanoic acid]
406 nM		16 nM	1690 nM											selective at the EP2 and EP4 receptors	CCCCCC(O)c1ccc(CN(CCCCCCC(=O)O)S(C)(=O)=O)cc1 (centres unmarked) [Compound 12, 7-[[4-(1-Hydroxyhexyl)benzyl]methanesulfonylamino]heptanoic acid]
